# Data as given in patent US9889180B2, “Method of treating cancer” (Agency for Science, Technology and Research, priority 2012, dated 2018).
# B1: IFN-γ: human recombinant IFN-γ purchased from Sigma; enhancer of interferon-gamma receptor activity (protein)
# chain: QDPYVKEAENLKKYFNAGHSDVADNGTLFLGILKNWKEESDRKIMQSQIVSFYFKLFKNFKDDQSIQKSVETIKEDMNVKFFNSNKKKRDDFEKLTNYSVTDLNVQRKAIHELIQVMAELSPAAKTGKRKRSQMLFRGRRASQ
# Assays:
# DU145 cells [1] = experiment: FACS sub-G1 DNA analysis (apoptosis) in DU145 cells; format: cell-based, human; conditions: for apoptosis (sub-G1) with other epigenetic compounds / apoptotic effect (sub-G1): in combination with IFN-γ; for apoptosis (sub-G1) with other epigenetic compounds: compared with DZNep; for apoptotic effect (sub-G1): treated for either 3 days or 10 days
# Experimental: For the assessment of cell death, cells were harvested in 70% ethanol. Fixed cells were stained with Propidium Iodide (P.I) (50 μg/mL). The stained cells were analyzed for DNA content by FACS in a FACSCalibur (Becton Dickinson Instrument). % of cell death was defined as the sub-G1 population quantified using the CellQuest software (Becton Dickinson). The percentage of dead cells or sub-G1 cells was calculated by comparing the results of each experiment to the results from DMSO-treated cells. Each assay was repeated a minimum of three times, with results reported as means+s.e.m.
# [2] = system: IFNGR1 expression and IFN-γ-STAT1 signaling; experiment: qRT-PCR and western blot of IFNGR1 expression and IFN-γ signaling in DU145 cells; format: cell-based, human
# Experimental: All cells were maintained at 37° C. with 5% CO2. Cells were grown until they were 80% confluent before they are treated the respective drugs. For drug treatment, DZNep and GSK126 were purchased from Pharmaron Inc. (Beijing, China), GSK343 was kindly provided by Chemical Probes of University of Toronto, 5′Aza, TSA and human recombinant IFN-γ was purchased from Sigma. For rescue experiment using IFNGR1 blocking antibody, the neutralizing antibody that specifically targets IFNGR1 (anti-CD119, GIR-208, BD Pharmingen) was added to the medium 4 hour prior to the addition of DZNep or/and IFN-γ. Total RNA was isolated by using Trizol (Invitrogen) and purified with the RNeasy Mini Kit (Qiagen). The microarray hybridization was performed using the Illumina Gene Expression Sentrix BeadChip HumanRef-8_V3, and data analysis was performed by GeneSpring software from Agilent Technologies as described previously. The analyzed gene sets by GeneSpring were next subjected to Ingenuity Pathway Analysis (IPA) for gene ontology (GO) analysis. Reverse transcription and quantitative PCR assays were performed using High Capacity cDNA Archive kit and KAPA SyBr Fast qPCR kit (KAPA biosystems). For quantification of mRNA levels, 18S level was used as an internal control. All reactions were analyzed in an Applied Biosystems PRISM 7500 Fast Real-Time PCR system in 96-well plate format. Western Blotting was performed as described previously. Briefly, Cells were scraped, collected, and lysed in RIPA buffer. To release histones from chromatin, cell lysates were further sonicated for 15 sec using a XL2000 Microson Ultrasonic Processor (Misonix). Equal amounts of protein (30 μg) were separated on SDS-polyacrylamide gels and transferred to PVDF membranes. The blots were probed with antibodies against EED (07-368), SUZ12 (07-379), trimethylated H3-K27 (07-449), Acetyl-Histone H3 (06-599), which were purchased from Upstate Biotechnology. IFNGR1 (GIR-94) and anti-IFI16 (1G7) were purchased from Santa Cruz. EZH2 phospho S21 (00388) was purchased from Bethyl Laboratories. EZH2 (AC22), P110α PI3K, p-AKT (T308), p-AKT (S473), pSTAT1Y701, total STAT1, Histone H3 (3H1), Beclin-1 and cleaved PARP were purchased from Cell Signaling. Myc and Actin were purchased from Roche Applied Science and Sigma-Aldrich, respectively.
# EZH2/PRC2 and H3K27me3 = target: T1, EZH2/PRC2 and H3K27me3 (Homo sapiens, UniProt Q15910); experiment: Western blot of PRC2 proteins and H3K27me3 in DU145 cells; format: cell-based
# T1 construct: endogenous in cells; host or cells: DU145 (named by the earlier reading of the assay)
# Experimental: Western Blotting was performed as described previously. Briefly, Cells were scraped, collected, and lysed in RIPA buffer. To release histones from chromatin, cell lysates were further sonicated for 15 sec using a XL2000 Microson Ultrasonic Processor (Misonix). Equal amounts of protein (30 μg) were separated on SDS-polyacrylamide gels and transferred to PVDF membranes. The blots were probed with antibodies against EED (07-368), SUZ12 (07-379), trimethylated H3-K27 (07-449), Acetyl-Histone H3 (06-599), which were purchased from Upstate Biotechnology. IFNGR1 (GIR-94) and anti-IFI16 (1G7) were purchased from Santa Cruz. EZH2 phospho S21 (00388) was purchased from Bethyl Laboratories. EZH2 (AC22), P110α PI3K, p-AKT (T308), p-AKT (S473), pSTAT1Y701, total STAT1, Histone H3 (3H1), Beclin-1 and cleaved PARP were purchased from Cell Signaling. Myc and Actin were purchased from Roche Applied Science and Sigma-Aldrich, respectively.
# IFNGR1 promoter = experiment: ChIP analysis of EZH2 and H3K27me3 enrichments at IFNGR1 in DU145 cells; format: cell-based, human; conditions: GSK126 (5 μM), 3 days, compared with DZNep
# Experimental: ChIP assays were performed as described previously. […] The immunoprecipitated DNA was quantified by quantitative real-time PCR using KAPA SyBr Fast qPCR kit (KAPA biosystems) with the specific ChIP primers as listed in the Table 4. Quantification of binding to the promoter was defined as the percentage of the whole cell lysate input DNA. The fold enrichment was derived by normalizing the specific antibody enriched against the IgG-enriched chromatin. CNR1 serves a positive control and Actin is a negative control. Significance of target genes was assessed relative to Actin level.
# solid tumor cells = conditions: very recent report; cited from earlier work
# DU145 cells [3] = experiment: Cell proliferation assay (CellTiter-Glo) in DU145 cells; format: cell-based, human; conditions: siRNA knockdown combined with IFN-γ treatment
# Experimental: (§1) The optimal cell seeding was determined empirically for all cell lines by examining the growth of a wide range of seeding densities in a 96-well format to identify conditions that permitted proliferation for 6 days. Cells were then plated at the optimal seeding density 24 h before siRNA or drug treatment in triplicate. Plates were incubated for 6 days at 37° C. in 5% CO2. Cells were then lysed with CellTiter-Glo (CTG) (Promega) and chemiluminescent signal was detected with a microplate reader (TECAN). In addition, an untreated plate of cells was harvested at the time of drug or siRNA addition (T0) to quantify the starting number of cells. CTG values obtained after the 6 day treatment were expressed as percentages of the T0 value and plotted against time of treatment. Cells received 1-5 μM of DZNep, 25 ng/mL of IFN-γ and 0.1-2.5 μM of GSK343 unless stated otherwise for 72-96 h.
# LNCaP cells = experiment: Cell proliferation assay (CellTiter-Glo) in LNCaP cells; format: cell-based, human; conditions: siRNA knockdown combined with IFN-γ treatment
# Experimental: as §1
# DU145 xenograft tumor = DU145 xenograft tumor growth in male athymic nude mice; format: in vivo; conditions: IFN-γ 1×10^7 IU/kg i.p. daily, DZNep 1 mg/kg s.c. every alternating day, 38 days
# Experimental: For in vivo evaluation of DZNep and IFN-γ treatment, the experiments were conducted in compliance with animal protocol approved by the ASTAR-Biopolis Institutional Animal Care and Use Committee (IACUC) of Singapore. DU145 cells were subcutaneously injected into 6-8 week male nude mice at 5×10^6 cells, followed by treatment with vehicle, IFN-γ (1×10^7 IU/kg) alone, DZNep (1 mg/kg) alone or combined DZNep (1 mg/kg) with IFN-γ (1×10^7IU/kg). IFN-γ was administered by intraperitoneal injection daily and DZNep by subcutaneous injection on every alternating day over a duration of 38 days after average tumor size reached around 150 mm^3. Tumors were measured by vernier calliper at least twice per week and tumors volume was calculated with formula: V=W*W*L/2. Each xenograft treatment arm comprised of 5-8 mice. Differences among groups and treatments were determined by ANOVA followed by t tests. (***p<0.001, n.s=not significant) Error bars represent means±s.e.m
# T1 sequence (Q15910 whole entry): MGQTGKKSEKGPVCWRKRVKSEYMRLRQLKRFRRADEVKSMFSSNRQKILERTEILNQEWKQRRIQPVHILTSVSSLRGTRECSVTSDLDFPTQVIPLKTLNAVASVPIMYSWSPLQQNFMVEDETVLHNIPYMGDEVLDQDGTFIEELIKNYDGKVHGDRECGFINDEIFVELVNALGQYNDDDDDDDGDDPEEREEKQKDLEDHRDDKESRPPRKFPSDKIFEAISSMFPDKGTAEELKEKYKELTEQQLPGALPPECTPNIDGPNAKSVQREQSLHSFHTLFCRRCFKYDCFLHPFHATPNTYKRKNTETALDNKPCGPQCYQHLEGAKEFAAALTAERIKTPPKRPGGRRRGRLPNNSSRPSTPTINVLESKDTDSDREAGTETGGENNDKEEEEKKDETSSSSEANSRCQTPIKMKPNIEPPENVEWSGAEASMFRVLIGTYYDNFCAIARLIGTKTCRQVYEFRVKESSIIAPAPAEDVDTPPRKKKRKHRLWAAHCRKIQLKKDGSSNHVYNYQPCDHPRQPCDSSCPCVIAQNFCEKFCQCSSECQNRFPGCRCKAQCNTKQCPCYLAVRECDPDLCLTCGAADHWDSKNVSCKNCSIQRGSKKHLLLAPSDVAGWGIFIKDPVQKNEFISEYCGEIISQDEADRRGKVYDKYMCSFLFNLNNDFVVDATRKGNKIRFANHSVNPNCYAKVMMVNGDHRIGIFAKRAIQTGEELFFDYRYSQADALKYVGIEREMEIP
# T1 sequence (O75530 whole entry partner): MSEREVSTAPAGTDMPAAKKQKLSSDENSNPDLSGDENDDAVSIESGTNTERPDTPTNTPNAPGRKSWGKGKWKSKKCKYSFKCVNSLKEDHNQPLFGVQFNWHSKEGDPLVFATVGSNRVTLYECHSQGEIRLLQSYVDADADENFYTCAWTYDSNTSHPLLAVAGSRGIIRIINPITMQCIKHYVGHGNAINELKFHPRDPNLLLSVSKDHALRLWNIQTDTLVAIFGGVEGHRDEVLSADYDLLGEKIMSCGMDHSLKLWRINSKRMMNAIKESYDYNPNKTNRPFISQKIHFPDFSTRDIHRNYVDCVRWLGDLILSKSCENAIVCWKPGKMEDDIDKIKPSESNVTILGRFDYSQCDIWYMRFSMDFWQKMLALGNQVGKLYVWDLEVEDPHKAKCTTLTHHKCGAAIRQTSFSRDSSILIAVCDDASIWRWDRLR
# T1 sequence (Q15022 whole entry partner): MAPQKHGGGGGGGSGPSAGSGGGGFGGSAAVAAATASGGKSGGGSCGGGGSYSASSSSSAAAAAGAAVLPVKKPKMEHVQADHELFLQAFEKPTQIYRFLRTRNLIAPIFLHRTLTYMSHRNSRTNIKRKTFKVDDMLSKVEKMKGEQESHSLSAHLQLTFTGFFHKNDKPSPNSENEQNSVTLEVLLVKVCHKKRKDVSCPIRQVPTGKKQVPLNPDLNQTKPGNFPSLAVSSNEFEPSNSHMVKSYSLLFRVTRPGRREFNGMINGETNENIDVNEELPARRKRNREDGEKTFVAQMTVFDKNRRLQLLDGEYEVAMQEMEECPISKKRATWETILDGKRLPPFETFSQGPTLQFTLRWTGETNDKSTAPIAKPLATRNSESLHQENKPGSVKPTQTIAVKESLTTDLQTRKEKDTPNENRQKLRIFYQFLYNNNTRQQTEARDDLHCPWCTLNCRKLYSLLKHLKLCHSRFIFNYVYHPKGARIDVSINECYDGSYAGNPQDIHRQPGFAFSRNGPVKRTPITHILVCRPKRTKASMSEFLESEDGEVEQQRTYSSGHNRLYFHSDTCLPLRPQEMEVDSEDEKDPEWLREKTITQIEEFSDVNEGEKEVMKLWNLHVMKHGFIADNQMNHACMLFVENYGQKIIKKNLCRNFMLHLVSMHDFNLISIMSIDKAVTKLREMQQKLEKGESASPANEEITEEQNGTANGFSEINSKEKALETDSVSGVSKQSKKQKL
molecule,measurement,setting,value
CC(/C=C/C(=O)NO)=C\[C@@H](C)C(=O)c1ccc(N(C)C)cc1 [TSA],apoptosis (sub-G1) with other epigenetic compounds,DU145 cells [1],did not give rise to such a response
"CCCc1cc(C)[nH]c(=O)c1CNC(=O)c1cc(-c2ccnc(N3CCN(C)CC3)c2)cc2c1cnn2C(C)C [GSK343, N-[(6-methyl-2-oxo-4-propyl-1,2-dihydropyridin-3-yl)methyl]-6-[2-(4-methylpiperazin-1-yl)pyridin-4-yl]-1-(propan-2-yl)-1H-indazole-4-carboxamide]",IFNGR1 expression,[2]; GSK343 up to 2.5 μM for 3 days,did not show an induction of IFNGR1
same,depletion of H3K27me3,"EZH2/PRC2 and H3K27me3; GSK343 at as low as 0.1 μM, 3 days",efficient depletion of H3K27me3
same,apoptotic effect (sub-G1),DU145 cells [1],failed to see an apoptotic effect
O=C(CCCCCCC(=O)Nc1ccccc1)NO [SAHA],apoptosis (sub-G1) with other epigenetic compounds,DU145 cells [1],did not give rise to such a response
"CC[C@H](C)n1cc(C)c2c(C(=O)NCc3c(C)cc(C)[nH]c3=O)cc(-c3ccc(N4CCNCC4)nc3)cc21 [GSK126, N-[(4,6-dimethyl-2-oxo-1,2-dihydro-3-pyridinyl)methyl]-3-methyl-1-((1S)-1-methylpropyl)-6-[6-(1-piperazinyl)-3-pyridinyl]-1H-indole-4-carboxamide]",IFNGR1 expression,[2]; GSK126 up to 10 μM for 10 days,modest induction of IFNGR1
same,H3K27me3 enrichment at the IFNGR1 gene promoter,IFNGR1 promoter,more efficiently depleted H3K27me3
same,apoptotic effect (sub-G1),DU145 cells [1],failed to see an apoptotic effect
same,ability to induce the loss of cell viability,solid tumor cells,unable to do so
MYC knockdown: MYC siRNA: 5′-UCCUGAGACAGAUCAGCAACAACCG-3′ (SEQ ID NO:2) (other strand not given here),EZH2 expression after knockdown,EZH2/PRC2 and H3K27me3,decreased EZH2 expression
same,apoptosis (sub-G1) after knockdown,DU145 cells [1]; siRNA knockdown in combination with IFN-γ,apoptosis induction
same,cell growth after knockdown,DU145 cells [3],remarkable synergy in cell growth regression
same,cell growth after knockdown,LNCaP cells,no such an effect was seen
B1,xenograft tumor growth,DU145 xenograft tumor,slowed down the tumor growth
